In US20240190893A1, “MACROCYCLIC 1,3-BRIDGED 6-CHLORO-7-PYRAZOL-4-YL-1 H-INDOLE-2-CARBOXYLATE AND 6-CHLORO-7-PYRIMIDIN-5-YL-1H-INDOLE-2-CARBOXYLATE DERIVATIVES AS MCL-1 INHIBITORS FOR THE TREATMENT OF CANCER” (JANSSEN PHARMACEUTICA NV, priority 2021, published 2024):

Assays:
[1] = target: Myeloid Cell Leukemia 1 (Mcl-1) (Homo sapiens (Human), UniProt Q07820); assay: Terbium labeled Mcl-1 HTRF binding assay with Cy5-labeled BIM BH3 peptide; conditions: Tb-Mcl-1 25 pM, Cy5 Bim peptide 8 nM; Ki=IC50/(1+[L]/Kd), [L]=8 nM, Kd=10 nM
Myeloid Cell Leukemia 1 (Mcl-1), sequence (Q07820 whole entry): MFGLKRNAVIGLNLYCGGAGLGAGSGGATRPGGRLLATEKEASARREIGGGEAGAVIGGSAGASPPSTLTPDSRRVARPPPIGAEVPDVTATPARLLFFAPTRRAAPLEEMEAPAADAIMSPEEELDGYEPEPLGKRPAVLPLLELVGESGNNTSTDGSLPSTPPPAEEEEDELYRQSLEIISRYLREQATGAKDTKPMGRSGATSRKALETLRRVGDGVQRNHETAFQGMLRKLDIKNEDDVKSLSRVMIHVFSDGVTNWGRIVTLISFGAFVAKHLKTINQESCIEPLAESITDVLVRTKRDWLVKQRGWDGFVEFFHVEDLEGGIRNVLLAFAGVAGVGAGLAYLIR
Protocol: Terbium labeled Myeloid Cell Leukemia 1 (Mcl-1) homogeneous time-resolved fluorescence (HTRF) binding assay utilizing the BIM BH3 peptide (H2N—(C/Cy5Mal) WIAQELRRIGDEFN-OH) as the binding partner for Mcl-1.
This assay evaluated inhibition of the BH3 domain: Mcl-1 interaction by measuring the displacement of Cy5-labeled BIM BH3 peptide (H2N—(C/Cy5Mal) WIAQELRRIGDEFN-OH) in the HTRF assay format.
The following assay and stock buffers were prepared for use in the assay: (a) Stock buffer: 10 mM Tris-HCl, pH=7.5+150 mM NaCl, filtered, sterilized, and stored at 4° C.; and (b) 1× assay buffer, where the following ingredients were added fresh to stock buffer: 2 mM dithiothreitol (DTT), 0.0025% Tween-20, 0.1 mg/mL bovine serum albumin (BSA). The 1×Tb-Mcl-1+Cy5 Bim peptide solution was prepared by diluting the protein stock solution using the 1× assay buffer (b) to 25 pM Tb-Mcl-1 and 8 nM Cy5 Bim peptide.
Using the Acoustic ECHO, 100 nL of 100× test compound(s) were dispensed into individual wells of a white 384-well Perkin Elmer Proxiplate, for a final compound concentration of 1× and final DMSO concentration of 1%. Inhibitor control and neutral control (NC, 100 nL of 100% DMSO) were stamped into columns 23 and 24 of assay plate, respectively. Into each well of the plate was then dispensed 10 μL of the 1×Tb-Mcl-1+Cy5 Bim peptide solution. The plate was centrifuged with a cover plate at 1000 rpm for 1 minute, then incubated for 60 minutes at room temperature with plates covered.
The TR-FRET signal was read on an BMG PHERAStar FSX MicroPlate Reader at room temperature using the HTRF optic module (HTRF: excitation: 337 nm, light source: laser, emission A: 665 nm, emission B: 620 nm, integration start: 60 μs, integration time: 400 μs).
The BMG PHERAStar FSX MicroPlate Reader was used to measure fluorescence intensity at two emission wavelengths—665 nm and 620 nm—and report relative fluorescence units (RFU) for both emissions, as well as a ratio of the emissions (665 nm/620 nm)*10,000. The RFU values were normalized to percent inhibition as follows:
% inhibition=(((NC−IC)−(compound−IC))/(NC−IC))*100
where IC (inhibitor control, low signal)=mean signal of 1×Tb-MCl-1+Cy5 Bim peptide+ inhibitor control or 100% inhibition of Mcl-1; NC (neutral control, high signal)=mean signal 1×Tb-MCl-1+Cy5 Bim peptide with DMSO only or 0% inhibition
An 11-point dose response curve was generated to determine IC50 values (using GenData) based on the following equation:
Y=Bottom+(Top−Bottom)/(1+10^((log IC50−X)*HillSlope))
where Y=% inhibition in the presence of X inhibitor concentration; Top=100% inhibition derived from the IC (mean signal of Mcl-1+inhibitor control); Bottom=0% inhibition derived from the NC (mean signal of Mcl-1+DMSO); Hillslope=Hill coefficient; and IC50=concentration of compound with 50% inhibition in relation to top/neutral control (NC).
In this assay [L]=8 nM and Kd=10 nM
Representative compounds of the present invention were tested according to the procedure as described above, with results as listed in the Table below (n.d. means not determined).

[2] = system: MOLP-8 human multiple myeloma cell line; assay: Caspase-Glo 3/7 apoptosis induction assay in MOLP-8 cells; assay type: cell-based; conditions: MOLP8 cells, 2 hours at 37° C., averaged over all runs on all batches
Source text: MCL-1 is a regulator of apoptosis and is highly over-expressed in tumor cells that escape cell death. The assay evaluates the cellular potency of small-molecule compounds targeting regulators of the apoptosis pathway, primarily MCL-1, Bfl-1, Bcl-2, and other proteins of the Bcl-2 family. Protein-protein inhibitors disrupting the interaction of anti-apoptotic regulators with BH3-domain proteins initiate apoptosis.
The Caspase-Glo® 3/7 Assay is a luminescent assay that measures caspase-3 and -7 activities in purified enzyme preparations or cultures of adherent or suspension cells. The assay provides a proluminescent caspase-3/7 substrate, which contains the tetrapeptide sequence DEVD. This substrate is cleaved to release aminoluciferin, a substrate of luciferase used in the production of light. Addition of the single Caspase-Glo® 3/7 Reagent in an “add-mix-measure” format results in cell lysis, followed by caspase cleavage of the substrate and generation of a “glow-type” luminescent signal.
This assay uses the MOLP-8 human multiple myeloma cell line, which is sensitive to MCL-1 inhibition.
Cell cultures were maintained between 0.2 and 2.0×10^6 cells/mL. The cells were harvested by collection in 50 mL conical tubes. The cells were then pelleted at 500 g for 5 mins before removing supernatant and resuspension in fresh pre-warmed culture medium. The cells were counted and diluted as needed.
The assay reagent was prepared by transferring the buffer solution to the substrate vial and mixing. The solution may be stored for up to 1 week at 4° C. with negligible loss of signal.
Compounds were delivered in assay-ready plates (Proxiplate) and stored at −20° C.
Assays always include 1 reference compound plate containing reference compounds. The plates were spotted with 40 nL of compounds (0.5% DMSO final in cells; serial dilution; 30 μM highest conc. 1/3 dilution, 10 doses, duplicates). The compounds were used at room temperature and 4 μL of pre-warmed media was added to all wells except column 2 and 23. The negative control was prepared by adding 1% DMSO in media. The positive control was prepared by adding the appropriate positive control compound in final concentration of 60 μM in media. The plate was prepared by adding 4 μL negative control to column 23, 4 μL positive control to column 2 and 4 μL cell suspension to all wells in the plate. The plate with cells was then incubated at 37° C. for 2 hours. The assay signal reagent is the Caspase-Glo solution described above, and 8 μL was added to all wells. The plates were then sealed and measured after 30 minutes.
The activity of a test compound was calculated as percent change in apoptosis induction as follows:
LC=median of the Low Control values
HC=Median of the High Control values
=30 μM of positive control
=100% apoptosis induction
% Effect (AC50)=100−((sample−LC)/(HC−LC))*100
% Control=(sample/HC)*100
% Control min=((sample−LC)/(HC−LC))*100

Cc1c(-c2c(Cl)ccc3c4c(C(=O)O)n(c23)CCCSCc2cc(n(C)n2)CCc2cc(c3ccc(F)cc3c2)OCCC4)c(CO)nn1C (single isomer, unassigned) [Compound 16]
Ki [1]: 0.056 nM | AC50 [2]: 414 nM

Cc1nn(C)c(C)c1-c1c(Cl)ccc2c3c(C(=O)O)n(c12)CCCSCc1cc(n(C)n1)CSc1cc(c2ccccc2c1)OCCC3 [Compound 19]
AC50 [2]: 740 nM

Cc1nn(C)c(C)c1-c1c(Cl)ccc2c3c(C(=O)O)n(c12)CCSCc1cc(n(C)n1)CCc1cc(c2ccccc2c1)OCCC3 (single isomer, unassigned) [Compound 12]
Ki [1]: 0.396 nM | AC50 [2]: 1350 nM

Cc1nn(C)c(C)c1-c1c(Cl)ccc2c3c(C(=O)O)n(c12)CCCSCc1cc(n(C)n1)CCc1cc(c2ccc(F)cc2c1)OCCC3 (single isomer, unassigned) [Compound 3]
Ki [1]: 0.133 nM | AC50 [2]: 207 nM

Cc1nn(C)c(C)c1-c1c(Cl)ccc2c3c(C(=O)O)n(c12)CCCSCc1cc(n(C)n1)CCc1cc(c2ccc(F)cc2c1)OCCC3 (single isomer, unassigned) [Compound 2]
Ki [1]: 0.084 nM | AC50 ([2]; Homo sapiens, MOLP-8, 2 h): 130 nM

Cc1nn(C)c(C)c1-c1c(Cl)ccc2c3c(C(=O)O)n(c12)CCSCc1cc(n(C)n1)CSc1cc(c2ccccc2c1)OCCC3 (single isomer, unassigned) [Compound 13]
Ki [1]: 0.392 nM | AC50 ([2]; Homo sapiens, MOLP-8, 2 h): 1340 nM

Cc1nn(C)c(C)c1-c1c(Cl)ccc2c3c(C(=O)O)n(c12)CCSCc1cc(n(C)n1)CCc1cc(c2ccccc2c1)OCCC3 (single isomer, unassigned) [Compound 11]
Ki [1]: 0.307 nM | AC50 ([2]; Homo sapiens, MOLP-8, 2 h): 1460 nM

COCCn1nc(C)c(-c2c(Cl)ccc3c4c(C(=O)O)n(c23)CCCSCc2cc(n(C)n2)CCc2cc(c3ccc(F)cc3c2)OCCC4)c1C (single isomer, unassigned) [Compound 9]
Ki [1]: 0.139 nM | AC50 ([2]; Homo sapiens, MOLP-8, 2 h): 232 nM

Cc1nn(C)c(C)c1-c1c(Cl)ccc2c3c(C(=O)O)n(c12)CCCS(=O)(=O)Cc1cc(n(C)n1)CCc1cc(c2ccc(F)cc2c1)OCCC3 (single isomer, unassigned) [Compound 5]
Ki [1]: 0.276 nM | AC50 [2]: 7270 nM

Cn1cc(-c2c(Cl)ccc3c4c(C(=O)O)n(c23)CCCSCc2cc(n(C)n2)CCc2cc(c3ccc(F)cc3c2)OCCC4)cn1 [Compound 8]
Ki [1]: 0.977 nM | AC50 ([2]; Homo sapiens, MOLP-8, 2 h): 1340 nM

Cc1nn(C)c(C)c1-c1c(Cl)ccc2c3c(C(=O)O)n(c12)CCSCc1cc(n(C)n1)CSc1cc(c2ccccc2c1)OCCC3 (single isomer, unassigned) [Compound 14]
Ki [1]: 0.423 nM | AC50 [2]: 1540 nM

Cc1nn(C)c(C)c1-c1c(Cl)ccc2c3c(C(=O)O)n(c12)CCCS(=O)(=O)Cc1cc(n(C)n1)CCc1cc(c2ccc(F)cc2c1)OCCC3 (single isomer, unassigned) [Compound 4]
Ki [1]: 0.251 nM | AC50 ([2]; Homo sapiens, MOLP-8, 2 h): 7030 nM

Cc1nn(C)c(C)c1-c1c(Cl)ccc2c3c(C(=O)O)n(c12)CCCSCc1cc(n(C)n1)CCc1cc(c2ccc(F)cc2c1)OCCC3 [Compound 1]
Ki [1]: 0.126 nM | AC50 ([2]; Homo sapiens, MOLP-8, 2 h): 90.5 nM

COCCOCc1nn(C)c(C)c1-c1c(Cl)ccc2c3c(C(=O)O)n(c12)CCCSCc1cc(n(C)n1)CCc1cc(c2ccc(F)cc2c1)OCCC3 (single isomer, unassigned) [Compound 21]
Ki [1]: 0.155 nM | AC50 [2]: 1010 nM

Cn1nc2cc1CCc1cc(c3ccc(F)cc3c1)OCCCc1c(C(=O)O)n(c3c(-c4cncnc4)c(Cl)ccc13)CCC[S+]([O-])C2 (stereo not drawn) [Compound 15]
Ki [1]: 0.426 nM

Cc1nn(C)c(C)c1-c1c(Cl)ccc2c3c(C(=O)O)n(c12)CCCSCc1cc(n(C)n1)CSc1cc(c2ccccc2c1)OCCC3 [Compound 18]
AC50 [2]: 3640 nM

Cc1c(-c2c(Cl)ccc3c4c(C(=O)O)n(c23)CCCSCc2cc(n(C)n2)CCc2cc(c3ccc(F)cc3c2)OCCC4)c(CO)nn1C (single isomer, unassigned) [Compound 17]
Ki [1]: 0.08 nM | AC50 [2]: 1830 nM

COCCOCc1nn(C)c(C)c1-c1c(Cl)ccc2c3c(C(=O)O)n(c12)CCCSCc1cc(n(C)n1)CCc1cc(c2ccc(F)cc2c1)OCCC3 (single isomer, unassigned) [Compound 20]
Ki [1]: 0.073 nM | AC50 [2]: 173 nM

Cc1nn(C)c(C)c1-c1c(Cl)ccc2c3c(C(=O)O)n(c12)CCSCc1cc(n(C)n1)CCc1cc(c2ccc(F)cc2c1)OCCC3 (single isomer, unassigned) [Compound 7]
Ki [1]: 0.086 nM | AC50 [2]: 231 nM

COCCn1nc(C)c(-c2c(Cl)ccc3c4c(C(=O)O)n(c23)CCCSCc2cc(n(C)n2)CCc2cc(c3ccc(F)cc3c2)OCCC4)c1C (single isomer, unassigned) [Compound 10]
Ki [1]: 0.093 nM | AC50 [2]: 160 nM

Cc1nn(C)c(C)c1-c1c(Cl)ccc2c3c(C(=O)O)n(c12)CCSCc1cc(n(C)n1)CCc1cc(c2ccc(F)cc2c1)OCCC3 (single isomer, unassigned) [Compound 6]
Ki [1]: 0.056 nM | AC50 ([2]; Homo sapiens, MOLP-8, 2 h): 237 nM
